# Data from the supplement of paper PMC10307832.
# Legend:
# Test in all cases: relative viability (nuclei count vs DMSO), 5 days (fraction); higher = more cells survive
# JZL-184 + Phenformin = compound: C1CN(CCC1C(C2=CC3=C(C=C2)OCO3)(C4=CC5=C(C=C4)OCO5)O)C(=O)OC6=CC=C(C=C6)[N+](=O)[O-] [JZL-184] + N=C(N)NC(=N)NCCc1ccccc1 [Phenformin] (partner 250 µM)
# How it was run: (§1)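 A single step with final 0.05% Triton X-100, 1% formaldehyde and 1 ug/ml Hoechst fixed the cells and stained nuclei 5 days after treatment. Lung cancer cell lines in 1536-well plates had been treated by pin tool the day after seeding with one drug alone or a fixed anchor-drug dose plus five library-drug doses (not always all listed) in √10 steps, and nuclei were counted on 4× images. Relative viability is the ratio of nuclei in treated wells to nuclei in vehicle wells, taken as the median of duplicate plates.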
# JZL-184 + Crizotinib = compound: C1CN(CCC1C(C2=CC3=C(C=C2)OCO3)(C4=CC5=C(C=C4)OCO5)O)C(=O)OC6=CC=C(C=C6)[N+](=O)[O-] [JZL-184] + C[C@@H](Oc1cc(-c2cnn(C3CCNCC3)c2)cnc1N)c1c(Cl)ccc(F)c1Cl [Crizotinib] (partner 1 µM)
# How it was run: as §1
# JZL-184 + Pictilisib = compound: C1CN(CCC1C(C2=CC3=C(C=C2)OCO3)(C4=CC5=C(C=C4)OCO5)O)C(=O)OC6=CC=C(C=C6)[N+](=O)[O-] [JZL-184] + CS(=O)(=O)N1CCN(Cc2cc3nc(-c4cccc5[nH]ncc45)nc(N4CCOCC4)c3s2)CC1 [Pictilisib] (partner 1 µM)
# How it was run: as §1
# JZL-184 + Luminespib = compound: C1CN(CCC1C(C2=CC3=C(C=C2)OCO3)(C4=CC5=C(C=C4)OCO5)O)C(=O)OC6=CC=C(C=C6)[N+](=O)[O-] [JZL-184] + CCNC(=O)c1noc(-c2cc(C(C)C)c(O)cc2O)c1-c1ccc(CN2CCOCC2)cc1 [Luminespib] (partner 0.01 µM)
# How it was run: as §1
# JZL-184 + Linsitinib = compound: C1CN(CCC1C(C2=CC3=C(C=C2)OCO3)(C4=CC5=C(C=C4)OCO5)O)C(=O)OC6=CC=C(C=C6)[N+](=O)[O-] [JZL-184] + C[C@]1(O)C[C@@H](c2nc(-c3ccc4ccc(-c5ccccc5)nc4c3)c3c(N)nccn32)C1 [Linsitinib] (partner 1 µM)
# How it was run: as §1
Cell Line,relative viability (JZL-184 + Phenformin; first compound 0.04 µM),relative viability (JZL-184 + Phenformin; first compound 0.4 µM),relative viability (JZL-184 + Phenformin; first compound 1.265 µM),relative viability (JZL-184 + Phenformin; first compound 4 µM),relative viability (JZL-184 + Crizotinib; first compound 0.04 µM),relative viability (JZL-184 + Crizotinib; first compound 0.4 µM),relative viability (JZL-184 + Crizotinib; first compound 1.265 µM),relative viability (JZL-184 + Crizotinib; first compound 4 µM),relative viability (JZL-184 + Pictilisib; first compound 0.04 µM),relative viability (JZL-184 + Pictilisib; first compound 0.4 µM),relative viability (JZL-184 + Pictilisib; first compound 1.265 µM),relative viability (JZL-184 + Pictilisib; first compound 4 µM),relative viability (JZL-184 + Luminespib; first compound 0.04 µM),relative viability (JZL-184 + Luminespib; first compound 0.4 µM),relative viability (JZL-184 + Luminespib; first compound 1.265 µM),relative viability (JZL-184 + Luminespib; first compound 4 µM),relative viability (JZL-184 + Linsitinib; first compound 0.04 µM),relative viability (JZL-184 + Linsitinib; first compound 0.4 µM),relative viability (JZL-184 + Linsitinib; first compound 1.265 µM),relative viability (JZL-184 + Linsitinib; first compound 4 µM)
NCI-H727,0.676,0.517,0.509,0.45,0.876,0.728,0.903,0.864,0.505,0.393,0.333,0.473,0.343,0.286,0.375,0.355,0.203,0.314,0.233,0.373
NCI-H1437,0.301,0.307,0.302,0.288,0.938,0.889,0.888,0.841,0.466,0.408,0.366,0.468,1.19,1.14,0.947,1.08,1.24,1.01,1.07,0.958
RERF-LC-KJ,0.479,0.357,0.382,0.371,0.844,0.75,0.856,0.742,0.508,0.513,0.676,0.47,1.34,1.37,1.31,1.2,0.874,0.854,0.867,0.873
NCI-H1792,0.288,0.147,0.62,0.281,1.04,0.713,1,0.97,0.304,0.232,0.302,0.28,0.401,0.383,0.56,0.408,0.573,0.462,0.653,0.51
HCC-44,0.231,0.104,0.245,0.185,0.815,0.78,0.815,0.783,0.592,0.549,0.622,0.528,1.59,0.973,1.09,1.09,0.619,0.631,0.728,0.636
EPLC-272H,0.303,0.293,0.351,0.34,1.03,0.814,1.93,1.03,0.317,0.271,0.38,0.314,0.242,0.241,0.886,0.84,1.19,1.11,1.35,1.14
NCI-H358,0.422,0.32,0.304,0.328,0.748,0.438,0.595,0.49,0.353,0.399,0.319,0.444,0.387,0.279,0.308,0.304,0.889,0.738,0.848,0.708
NCI-H596,0.895,0.663,0.895,0.769,1.19,0.955,1.03,1.06,0.397,0.393,0.429,0.356,1.23,1.13,0.996,1.09,1.21,0.978,1.05,1.05
NCI-H322M,0.844,0.718,0.818,0.662,0.965,0.971,0.886,0.825,0.494,0.472,0.554,0.495,0.91,0.797,0.889,0.705,0.823,0.938,0.984,0.907
NCI-H1563,0.694,0.636,0.681,0.64,0.931,0.903,0.868,0.88,0.673,0.676,0.669,0.675,0.513,0.571,0.535,0.511,1.24,1.31,1.21,1.09
